From patent publication US9198425B2, “Herbicidally-effective sulfinyl aminobenzamides” (BAYER INTELLECTUAL PROPERTY GMBH, priority 2012, dated 2015)

Experiments:
Test in all cases: Pre-emergence herbicidal action
Format in all cases: in vivo
Abutilon theophrasti = conditions: dosage 320 g/ha
Description: (§1) Seeds of monocotyledonous and dicotyledonous weed plants and crop plants are placed in wood-fiber pots in sandy loam and covered with soil. The inventive compounds formulated in the form of wettable powders (WP) or as emulsion concentrates (EC) are then applied to the surface of the covering soil as an aqueous suspension or emulsion at a water application rate of 600 to 800 l/ha (converted) with addition of 0.2% wetting agent. After the treatment, the pots are placed in a greenhouse and kept under good growth conditions for the test plants. The damage to the test plants is assessed visually after a test period of 3 weeks by comparison with untreated controls (herbicidal activity in percent (%): 100% action=the plants have died, 0% action=like control plants). For example, compounds No. 6-102, 6-014 and 6-058 at an application rate of 320 g/ha each show at least 80% efficacy against Abutilon theophrasti, Amaranthus retroflexus and Matricaria inodora.
(§2) In accordance with the conditions specified for pre-emergence testing of herbicidal efficacy against harmful plants, comparative tests were conducted between inventive compounds and compounds known from WO 2011035874 A1.

Amaranthus retroflexus = conditions: dosage 320 g/ha
Description: as §1, §2

Matricaria inodora = conditions: dosage 320 g/ha
Description: as §1, §2

Pharbitis purpureum = conditions: dosage 320 g/ha
Description: as §1, §2

Veronica persica = conditions: Table A, dosage 320 g/ha
Description: as §1, §2

Stellaria media = conditions: dosage 320 g/ha
Description: as §1, §2

Avena fatua = conditions: Table C, dosage 320 g/ha
Description: as §1, §2

Row | Structure (SMILES) | Herbicidal efficacy against ABUTH (Abutilon theophrasti; Table A) [%] | Herbicidal efficacy against AMARE (Amaranthus retroflexus; Table A) [%] | Herbicidal efficacy against MATIN (Matricaria inodora; Table A) [%] | Herbicidal efficacy against PHBPU (Pharbitis purpureum; Table A) [%] | Herbicidal efficacy against VERPE (Veronica persica) [%] | Herbicidal efficacy against ABUTH (Abutilon theophrasti; Table B) [%] | Herbicidal efficacy against AMARE (Amaranthus retroflexus; Table B) [%] | Herbicidal efficacy against MATIN (Matricaria inodora; Table B) [%] | Herbicidal efficacy against STEME (Stellaria media; Table B) [%] | Herbicidal efficacy against AVEFA (Avena fatua) [%] | Herbicidal efficacy against MATIN (Matricaria inodora; Table C) [%] | Herbicidal efficacy against PHBPU (Pharbitis purpureum; Table C) [%] | Herbicidal efficacy against STEME (Stellaria media; Table C) [%]
1 | CCS(=O)(CC)=Nc1c(Cl)ccc(C(=O)Nc2nonc2C)c1Cl | 80 | 90 | 90 | 80 | 90 |  |  |  |  |  |  |  | 
2 | Cc1nonc1NC(=O)c1ccc(Cl)c(N=S2(=O)CCCCC2)c1Cl |  |  |  |  |  | 90 | 60 | 90 | 70 |  |  |  | 
3 | Cc1nonc1NC(=O)c1ccc(Cl)c(N=S2(=O)CCOCC2)c1Cl |  |  |  |  |  |  |  |  |  | 70 | 100 | 100 | 90
4 | Cc1nonc1NC(=O)c1ccc(Cl)c(N(C)C)c1Cl [drawing 39] | 0 | 30 | 0 | 10 | 40 |  |  |  |  |  |  |  | 
5 | Cc1nonc1NC(=O)c1ccc(Cl)c(N(C)C)c1Cl [drawing 41] |  |  |  |  |  | 0 | 30 | 0 | 0 |  |  |  | 
6 | Cc1nonc1NC(=O)c1ccc(Cl)c(N(C)C)c1Cl [drawing 43] |  |  |  |  |  |  |  |  |  | 0 | 0 | 10 | 0
